Consider 2 compounds from publication PMC7587396, “New Zileuton-Hydroxycinnamic Acid Hybrids: Synthesis and Structure-Activity Relationship towards 5-Lipoxygenase Inhibition” (Molecules, 2020).

For data set [1], the target named is T1, 5-LO (Homo sapiens, UniProt P09917).
T1 sequence (P09917 1-674): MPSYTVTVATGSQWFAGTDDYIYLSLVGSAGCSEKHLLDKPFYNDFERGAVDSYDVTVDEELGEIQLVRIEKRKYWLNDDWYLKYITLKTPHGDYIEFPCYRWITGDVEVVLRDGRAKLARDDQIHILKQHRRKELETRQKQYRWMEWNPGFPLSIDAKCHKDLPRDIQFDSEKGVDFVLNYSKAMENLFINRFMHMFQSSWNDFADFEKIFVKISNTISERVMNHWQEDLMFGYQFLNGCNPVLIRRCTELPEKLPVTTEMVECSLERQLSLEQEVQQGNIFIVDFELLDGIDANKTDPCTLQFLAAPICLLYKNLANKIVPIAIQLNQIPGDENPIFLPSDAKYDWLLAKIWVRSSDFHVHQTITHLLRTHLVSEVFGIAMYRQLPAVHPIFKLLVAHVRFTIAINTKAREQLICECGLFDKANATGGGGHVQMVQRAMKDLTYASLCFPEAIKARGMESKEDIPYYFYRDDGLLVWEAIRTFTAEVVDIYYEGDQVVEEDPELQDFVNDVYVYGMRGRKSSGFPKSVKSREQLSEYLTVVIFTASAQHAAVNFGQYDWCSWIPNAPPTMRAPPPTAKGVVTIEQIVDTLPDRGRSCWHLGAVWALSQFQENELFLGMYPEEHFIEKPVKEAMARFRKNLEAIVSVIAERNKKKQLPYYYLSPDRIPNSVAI
Also noted: 5-LO is highly expressed in PMNL; endogenous in cells; host or cells: human PMNL from peripheral blood of healthy volunteers. As to conditions: read-out: IC50, inhibition of LTs biosynthesis in human PMNL; cited from earlier work.

Data set [2] in a line: Free radical scavenging activity assay (DPPH). As to conditions: DPPH stable radical, 30 min, absorbance 517 nm; read-out: Free radical scavenging activity IC50 (µM) [SEM]. How it is done: A mechanism by which 5-LO activity can be inhibited is through reductive inhibition of the ferric non-heme iron of the enzyme. Interactions with stable free radicals provides an evaluation of the reducing ability of the test compounds. Radical scavenging activities of compounds tested in stimulated PMNL were assayed using 2,2-Diphenyl-1-picrylhydrazyl (DPPH) as a stable radical and are expressed as IC50 concentrations in Table 1.
The free radical scavenging activity of test compounds was measured as previously described using 2,2-diphenyl-1-picrylhydrazyl (DPPH) as a stable radical with slight modifications. DPPH (200 µL) in ethanol (250 µM) was mixed with 200 µL of the test compounds (1, 5, 10, 25, 50, 75, and 100 µg/mL). Each mixture was then shaken vigorously and held in the dark for 30 min at room temperature. The absorbance of DPPH at 517 nm was then measured. The radical scavenging activity was expressed in terms of % inhibition of DPPH absorbance:% Inhibition = (A control − A test)/A control) × 100 where A control is the absorbance of the control (DPPH solution without test compounds) and A test is the absorbance of the test sample (DPPH solution plus compounds). Ascorbic acid was used as a positive control. Data were expressed as mean ± SEM of three independent experiments, each performed in triplicate. IC50 values were calculated from a sigmoidal concentration-response curve-fitting model with a variable slope on GraphPad Prism software.

The target of data set [3] is T1, 5-LO. The data set is described as follows: 5-LO product biosynthesis assay in stimulated HEK293 cells co-transfected with 5-LO and FLAP. The class given is cell-based. Also noted: expressed in transfected cells; host or cells: HEK293 cells, stably co-transfected (pcDNA3.1 5-LO, pBUDCE4.1 FLAP). As to conditions: compounds at 1 µM; result in words, compared with zileuton (1) and SAPE (2) at 1 µM; A23187 + arachidonic acid stimulation. How it is done: All compounds, including known inhibitors zileuton (1) and SAPE (2), were assayed at 1 µM (Figure 1) for inhibition of LTs biosynthesis in stimulated HEK293 cells. These cells are stably transfected with human 5-LO and serves as a highly reproducible model of 5-LO product biosynthesis in which compounds can be preliminarily screened for anti-LTs activity before moving on to more complex systems. […] Esterification of benzo[b]thiophene-2-carboxylic acid to obtain benzyl to phenbutyl analogs (4–7) had no effect on the inhibitory activity of 5-LO. […] Even the addition of a hydroxyl (8) or methoxy (9) at para-position of the phenethyl group has no effect on the activity.
HEK293 cells were stably co-transfected with a pcDNA3.1 vector expressing 5-LO and a pBUDCE4.1 vector expressing 5-LO activating protein (FLAP) as previously reported. This represents a controlled model for the evaluation of 5-LO inhibition in a cellular system. For cell stimulation of 5-LO products, transfected HEK293 cells were collected following trypsinization, washed and the cell pellet was resuspended in Hank’s balanced salt solution (HBSS) (Lonza, Walkerville, MD) containing 1.6 mM CaCl2 at a concentration of 5 × 10^5 cells/mL. Cells were pre-incubated with each compound dissolved in DMSO at the indicated concentration for 5 min at 37 °C. Cells were then stimulated for 15 min at 37 °C with the addition of 10 µM calcium ionophore A23187 (Sigma-Aldrich, Oakville, ON, Canada) and 10 µM arachidonic acid (Cayman Chemical, Ann Arbor, MI). Stimulation was stopped and processed for RP-HPLC analysis as described previously.

In data set [4] the target is T1, 5-LO. The data set is described as follows: 5-LO products biosynthesis assay in human PMNL cells. On the set-up: 5-LO is highly expressed in PMNL; endogenous in cells; host or cells: human PMNL from peripheral blood of healthy volunteers. The format is cell-based. As to conditions: compounds at 1 µM; result in words, compared with zileuton (1), SAPE (2) or controls; thapsigargin stimulation. An excerpt: To further probe the inhibitory activity of compounds that approached the inhibitory activity of zileuton (1) and SAPE (2), compounds were selected for further screening in PMNL (Figure 6). 5-LO is highly expressed in PMNL and these cells are important physiological producers of LTB4 [17]. […] The presence of the hydroxyl group in position 4 and the methoxy groups in positions 3 and 5 seems to be an ideal combination for inhibition of 5-LO (Figure 6). These structural changes may influence the availability, cell permeation, or even the stability of inhibitors in PMNL versus HEK293 cells. […] Human PMNL were prepared from peripheral blood of healthy consenting volunteers as described. Human PMNL are an important source of 5-LO metabolites and are relevant primary inflammatory cells for the evaluation of the best compounds identified during the screening process. PMNL were suspended in HBSS containing 1.6 mM CaCl2 (10^7 cells/mL) and pre-incubated with compounds dissolved in DMSO for 5 min at 37 °C in the presence of 0.4 U/mL of adenosine deaminase (Sigma-Aldrich, Oakville, On, Canada). Cells were then stimulated for 15 min at 37 °C with 1 μM thapsigargin (Sigma-Aldrich). Reactions were stopped by the addition of 0.5 mL of cold MeOH:CH3CN (1:1) and 50 ng of PGB2 as internal standard and samples were stored at -20 °C until processing for RP-HPLC analysis as indicated above.

`O=C(/C=C/c1ccc(O)c(O)c1)OCCc1ccccc1` [CAPE, caffeic acid phenethyl ester]: the IC50 on 5-LO [1] was 0.52 µM.

As to `O=C(/C=C/c1ccccc1O)c1cc2ccccc2s1` [Compound 14, (E)-1-(1-Benzothiophen-2-yl)-3-(o-hydroxyphenyl)-2-propen-1-one], the melting point is 178 to 180 °C. Also, the IC50 in data set [2] worked out at 31.8 µM. Further, the “Inhibition of the biosynthesis of 5-LO products in stimulated HEK293 cells” value at 5-LO [3] is “non-significantly different than Zileuton (1)”. The “Inhibition of the biosynthesis of 5-LO products in human PMNL cells” value at 5-LO [4] was “neither compound showed significant inhibition compared to controls”.

By IC50 is commonly meant the midpoint of a concentration-inhibition curve. By melting point is commonly meant the temperature of the solid-liquid transition.
